Data on one molecule can be found in BindingDB's records for patent US20240092770 (Recursion Pharmaceuticals, 2024).

The assay has as its target T1, RNA-binding protein 39 [150-331]/DDB1- and CUL4-associated factor 15 (Homo sapiens, UniProt Q14498+Q66K64).
T1 construct: 150-331
Briefly: TR-FRET Assay. The protocol:
A TR-FRET assay was used to assess the effect of compounds disclosed herein on the interaction between RBM39 and the DCAF15 complex. Test compounds were dissolved to form a 10 mM DMSO stock solution. A 45 μL aliquot of the stock solution was transferred to a 384 pp-plate, and a threefold, 8-point dilution was performed via transferring 15 μL compound solution into 30 μL of DMSO. The plates were then spun at room temperature at 1,000 RPM for 1 minute. A 30 nL aliquot of the diluted compound was transferred to a 384 well plate, which was incubated at room temperature for 15 minutes. Next, Solutions 1, 2, and 3 were prepared as described in the below tables. A 5 μL aliquot of Solution 2 was added to each well, followed by 5 μL of Solution 3 to start the reaction. The final volume of each well was 10 μL. The plates were incubated at room temperature for 60 minutes, and then read.

T1 sequence (Q66K64 whole entry): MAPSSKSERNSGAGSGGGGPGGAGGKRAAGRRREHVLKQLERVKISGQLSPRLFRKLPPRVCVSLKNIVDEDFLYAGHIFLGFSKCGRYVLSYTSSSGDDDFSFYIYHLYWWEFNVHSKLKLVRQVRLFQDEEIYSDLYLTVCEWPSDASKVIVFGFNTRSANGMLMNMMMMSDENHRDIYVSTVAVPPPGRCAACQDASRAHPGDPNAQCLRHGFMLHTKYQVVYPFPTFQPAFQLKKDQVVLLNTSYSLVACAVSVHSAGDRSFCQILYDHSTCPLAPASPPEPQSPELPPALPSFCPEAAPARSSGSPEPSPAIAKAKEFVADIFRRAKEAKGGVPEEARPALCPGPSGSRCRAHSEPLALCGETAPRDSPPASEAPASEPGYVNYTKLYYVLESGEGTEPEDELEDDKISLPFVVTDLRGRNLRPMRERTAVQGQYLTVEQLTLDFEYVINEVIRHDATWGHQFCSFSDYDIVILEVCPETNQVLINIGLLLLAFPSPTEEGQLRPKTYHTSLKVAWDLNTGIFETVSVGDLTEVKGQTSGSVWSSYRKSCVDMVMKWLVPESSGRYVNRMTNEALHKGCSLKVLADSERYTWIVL
T1 sequence (Q14498 150-331): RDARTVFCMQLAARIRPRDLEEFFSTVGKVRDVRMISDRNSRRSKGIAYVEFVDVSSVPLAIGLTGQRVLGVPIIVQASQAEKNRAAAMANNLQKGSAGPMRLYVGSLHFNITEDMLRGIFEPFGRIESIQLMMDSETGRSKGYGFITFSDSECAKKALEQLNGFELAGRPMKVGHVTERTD

One may read the EC50 as the concentration needed to bring the measured effect to its halfway point. Lower therefore signals higher potency in that assay. On to `Cc1ccc(NS(=O)(=O)c2ncc(C(F)(F)F)s2)c2[nH]cc(C#N)c12` [US20240092770, Compound 25], for which the EC50 is 1090 nM.
